# Test results from ChEMBL document CHEMBL1143548, “Synthesis and evaluation of potential inhibitors of eIF4E cap binding to 7-methyl GTP” (Bioorg Med Chem Lett, 2005).
# Biological target: Eukaryotic translation initiation factor 4E (Homo sapiens, UniProt P06730)
# Experiment: Inhibitory concentration against 7-methyl-GTP binding to eukaryotic translation initiation factor 4E
# Eukaryotic translation initiation factor 4E, sequence (P06730 whole entry): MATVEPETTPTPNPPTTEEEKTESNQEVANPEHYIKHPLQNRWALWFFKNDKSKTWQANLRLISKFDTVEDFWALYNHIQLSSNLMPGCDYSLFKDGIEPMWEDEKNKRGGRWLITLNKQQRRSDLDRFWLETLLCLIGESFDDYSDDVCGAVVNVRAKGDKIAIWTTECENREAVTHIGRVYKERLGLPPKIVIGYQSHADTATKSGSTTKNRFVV
row,Compound,IC50 [µM]
1,C[n+]1cn([C@@H]2O[C@H](CO)[C@@H](O)[C@H]2O)c2nc(N)nc([S-])c21,> 400
2,Cn1cnc2c(c1=O)[n+](C)cn2[C@@H]1O[C@H](CO)[C@@H](O)[C@H]1O,> 400
3,"CNc1nc2c(ncn2[C@@H]2O[C@H](CO)C(O)[C@H]2O)c(=O)[nH]1 (single isomer, unassigned)",> 400
4,"CN(C)c1nc2c(ccn2[C@@H]2O[C@H](CO)C(O)[C@H]2O)c(=O)[nH]1 (single isomer, unassigned)",> 400
5,"C[n+]1cn([C@@H]2O[C@H](CO)C(O)[C@H]2O)c2nc(N)[nH]c(=O)c21 (single isomer, unassigned)",> 400
6,"Cc1ccc(SNc2nc3c(ncn3[C@@H]3O[C@H](CO)C(O)[C@H]3O)c(=O)[nH]2)cc1 (single isomer, unassigned)",> 400

# These reach a lower IC50. Values come first.
row,IC50 [µM],Compound
1,200,Nc1nc2c(c(=O)[nH]1)[n+](Cc1ccccc1)cn2[C@@H]1O[C@H](CO[PH](=O)[O-])[C@@H](O)[C@H]1O
2,4,"C[n+]1cn([C@H]2CC(O)[C@@H](COP(=O)(O)OP(=O)([O-])OP(=O)(O)O)O2)c2nc(N)[nH]c(=O)c21 (single isomer, unassigned)"
3,220,"C=CC[n+]1cn([C@@H]2O[C@H](COP(=O)([O-])O)C(O)[C@H]2O)c2nc(N)[nH]c(=O)c21 (single isomer, unassigned)"
4,100,"CC[n+]1cn([C@@H]2O[C@H](COP(=O)([O-])O)C(O)[C@H]2O)c2nc(N)[nH]c(=O)c21 (single isomer, unassigned)"
5,130,"Nc1nc2c(ncn2[C@@H]2O[C@H](CO[PH](=O)O)C(O)[C@H]2O)c(=O)[nH]1 (single isomer, unassigned)"
